Measured values as given in patent US11427615B2, “Peptide compound and application thereof, and composition containing peptide compound” (XDCEXPLORER (SHANGHAI) CO., LTD., priority 2017, dated 2022).
Non-standard residues stand in square brackets, D forms with d. Residues, ends and D or L forms follow the SMILES beside them. Groups on a side chain read outwards from the residue. *: point of attachment. X5 = CCCCCCCCCCCC(=O)NCCOCCOCCOCCOCCOCCSSCCCC(=O)*; dPhe(2,4-Cl2) = N[C@H](Cc1ccc(Cl)cc1Cl)C(=O)O; Oic = O=C(O)[C@@H]1C[C@@H]2CCCC[C@@H]2N1; PEG8 = NCCOCCOCCOCCOCCOCCOCCOCCOCCC(=O)O; Pro(4,4-F2) = O=C(O)[C@@H]1CC(F)(F)CN1; dAla(2-furyl) = N[C@H](Cc1ccco1)C(=O)O; Arg(Me) = CNC(=N)NCCC[C@H](N)C(=O)O; Palmitoyl = CCCCCCCCCCCCCCCC(=O)*; Hyp = O=C(O)[C@@H]1C[C@@H](O)CN1; AllylGly = C=CC[C@H](N)C(=O)O; PEG4 = NCCOCCOCCOCCOCCC(=O)O; Lauroyl = CCCCCCCCCCCC(=O)*; Pip = O=C(O)[C@@H]1CCCCN1; Ac6c = NC1(C(=O)O)CCCCC1; azaGly = NNC(=O)O

Columns and labels:
[1] = target: T1, human kiss1 receptor (GPR54) (Homo sapiens, UniProt Q969F8); experiment: Kiss1 receptor (GPR54) binding activity of agonists, FRET detection in NFAT-bla CHO-K1 cells; assay type: cell-based; details: GPR54; measured according to the method of effect Embodiment 1; preliminary data; read-out: Preliminary measurement data (GPR54) EC50
T1 construct: host or cells: NFAT-bla CHO-K1 cells (Chinese hamster ovary), purchased recombinant cell line
T1 sequence (Q969F8 whole entry): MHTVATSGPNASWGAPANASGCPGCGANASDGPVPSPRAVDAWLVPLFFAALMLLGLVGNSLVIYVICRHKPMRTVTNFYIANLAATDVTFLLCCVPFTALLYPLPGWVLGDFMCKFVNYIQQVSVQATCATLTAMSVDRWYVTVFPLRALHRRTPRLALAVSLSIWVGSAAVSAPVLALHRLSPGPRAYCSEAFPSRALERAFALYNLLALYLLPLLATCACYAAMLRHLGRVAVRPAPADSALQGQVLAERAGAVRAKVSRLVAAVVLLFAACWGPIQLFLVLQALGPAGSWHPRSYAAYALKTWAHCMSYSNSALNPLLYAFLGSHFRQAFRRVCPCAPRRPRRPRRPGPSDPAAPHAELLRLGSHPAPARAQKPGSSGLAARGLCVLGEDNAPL

[2] = Plasma stability, LC-MS/MS; assay type: in vitro ADME; details: rat plasma, 37° C., final concentration 500 ng/ml, time points 0 minutes, 1, 2 and 4 hours; calculated half-life; read-out: Rat plasma (T½ (h)) (converted)
Experimental: Effect Embodiment 2 Experimental Data on Plasma Stability of Some Compounds
1. Preparation of 50 mM Phosphate Buffer:
The 5.750 g Na2HPO4, 1.141 g NaH2PO4. and 4.095 g NaCl (Shanghai Titan) weighed was dissolved in 1000 mL ultrapure water and the pH was adjusted to 7.4 to give 50 mM phosphate buffer containing 70 mM NaCl. The prepared phosphoric acid buffer solution was stored in the refrigerator at 4° C. and was valid for one week.
2. Preparation of compound stock solution:
1). 5 mg/mL of test compound: 5 mg of compound was weighted and dissolved in 1 mL of DMSO.
2). 20 mM control: 2.728 mg of Fuka was dissolved in 0.5 mL of DMSO. 3.878 mg of benzalkonium bromide was dissolved in 0.5 mL of DMSO (Amresco).
3. Preparation of experimental plasma:
The frozen plasma (human: Shanghai wise chemistry; Rats and mice: Shanghai Sciple-Bikai; Dogs and monkeys: Suzhou Xishan Zhongke) were taken out of the −80° C. refrigerator, immediately placed in a 37° C. water bath, slightly shaken to melt it, then the thawed plasma was poured into a centrifuge tube, centrifuged at 3000 rpm for 8 min, and the supernatant was taken for experiments. The pH value of plasma was detected by a pH Meter & Sensor (METTLER TOLEDO). Only plasma with a pH value between 7.4 and 8 was used in the experiment. The plasma was placed on an ice bath for later use.
4. Preparation of administration solution:
1). 125 µg/ml test compound solution: 5 μL of 5 mg/mL test compound (see step 2) was added into 195 μL DMSO; 500 μM control solution: 20 mM control stock solution (see step 2) was added to 195 μL DMSO.
2). 0.5% BSA phosphate buffer solution: 0.05 g BSA was added to 10 mL phosphate buffer solution (see step 1);
3). 5 µg/ml of test compound administration solution: 40 μL of 125 μg/mL of test compound solution was added into 960 μL 0.5% BSA phosphate buffer solution, stirred and mixed evenly, and the administration solution was preheated in a 37° C. water bath for 5 minutes.
20 μM reference substance administration solution: 40 μL of 500 μM reference substance administration solution was added into 960 μL 0.5% BSA phosphate buffer solution, stirred and mixed evenly, and the administration solution was preheated in a 37° C. water bath for 5 minutes.
5. 10 μL of 5 μg/mL of the test compound and 20 μM of the control substance administration solution were respectively added to the wells set at different time points (0 minutes, 1 hour, 2 hours and 4 hours) on the 96-well plate, and the number of duplicate samples was 3.
6. 500 μL of ACN (IS) containing 5% FA was added to the well set at 0 minute hour, then 90 μL of plasma was added, after mixing, sealing film was pasted and placed at 4° C. (number of duplicate samples was 3).
7. 90 μL of plasma was added to the wells with set time points of 1 hour, 2 hours and 4 hours respectively, the number of duplicate samples was 3, and timing was started (the final concentration of the test compound was 500 ng/ml; The control was 2 μM).
9. All samples (0 minutes, 1 hour, 2 hours and 4 hours) at different time points on a 96-well plate were shaken for 10 minutes at 600 rpm/min on an oscillator (MTS 2/4, IKA), and then the samples were centrifuged for 15 minutes at 5594×g in a centrifuge (Multifuge×3R, thermo Fisher).
10. 150 μL of supernatant was taken from the centrifuged sample and sent to LC-MS/MS for analysis (conventional polypeptide LC-MS/MS analysis method).

EC50 [1]	half-life at 500 ng/ml [2]	Structure (SMILES)
0.021 nM	5.32 h	CNC(=N)NCCC[C@H](NC(=O)[C@H](CC(C)C)NC(=O)NNC(=O)[C@H](Cc1ccccc1)NC(=O)[C@@H](NC(=O)[C@H](CC(N)=O)NC(=O)[C@@H]1CCCCN1C(=O)[C@@H](Cc1ccc(Cl)cc1Cl)NC(C)=O)[C@@H](C)O)C(=O)N[C@@H](Cc1c[nH]c2ccccc12)C(N)=O [YA-182, Ac-[D-Phe(2,4-DiCl)]—(S-Pip)-Asn-Thr-Phe-azaGly-Leu-Arg(Me)-Trp-NH2] (Ac-[dPhe(2,4-Cl2)][Pip]NTF[azaGly]L[Arg(Me)]W-NH2)
0.04 nM	3.64 h	CNC(=N)NCCC[C@H](NC(=O)[C@H](CC(C)C)NC(=O)NNC(=O)[C@H](Cc1ccccc1)NC(=O)[C@@H](NC(=O)[C@H](CC(N)=O)NC(=O)[C@@H]1C[C@@H]2CCCC[C@@H]2N1C(=O)[C@@H](Cc1ccc(O)cc1)NC(C)=O)[C@@H](C)O)C(=O)N[C@@H](Cc1c[nH]c2ccccc12)C(N)=O [YA-230, Ac-D-Tyr-Oic-Asn-Thr-Phe-azaGly-Leu-Arg(Me)-Trp-NH2] (Ac-[dY][Oic]NTF[azaGly]L[Arg(Me)]W-NH2)
0.007 nM	0.29 h	CCCCCCCCCCCC(=O)NCCOCCOCCOCCOCCOCCSSCCCC(=O)N[C@H](Cc1ccc(O)cc1)C(=O)N1C[C@H](O)C[C@H]1C(=O)N[C@@H](CC(N)=O)C(=O)N[C@H](C(=O)N[C@@H](Cc1ccccc1)C(=O)NNC(=O)N[C@@H](CC(C)C)C(=O)N[C@@H](CCCNC(=N)NC)C(=O)N[C@@H](Cc1c[nH]c2ccccc12)C(N)=O)[C@@H](C)O [YA-324, Dodecanoyl-(NH-PEG5-CH2CH2S)-(4-thiol-butanoyl)-(D-Tyr)-Hyp-Asn-Thr-Phe-azaG-Leu-Arg(Me)-Trp-NH2] (X5-[dY][Hyp]NTF[azaGly]L[Arg(Me)]W-NH2)
0.39 nM	2.65 h	CNC(=N)NCCC[C@H](NC(=O)[C@H](CC(C)C)NC(=O)C1(NC(=O)[C@H](Cc2ccccc2)NC(=O)[C@@H](NC(=O)[C@H](CC(N)=O)NC(=O)[C@@H]2CC(F)(F)CN2C(=O)[C@@H](Cc2ccco2)NC(C)=O)[C@@H](C)O)CCCCC1)C(=O)N[C@@H](Cc1c[nH]c2ccccc12)C(N)=O [YA-201, Ac-(D-2Fua)-Pro(diF)-Asn-Thr-Phe-A6c-Leu-Arg(Me)-Trp-NH2] (Ac-[dAla(2-furyl)][Pro(4,4-F2)]NTF[Ac6c]L[Arg(Me)]W-NH2)

Further lines, the molecule ahead of its results:

Structure (SMILES)	EC50 [1]	half-life at 500 ng/ml [2]
C=CC[C@H](NC(=O)[C@H](Cc1ccccc1)NC(=O)[C@@H](NC(=O)[C@H](CC(N)=O)NC(=O)[C@@H]1C[C@@H](O)CN1C(=O)[C@@H](Cc1ccc(O)cc1)NC(=O)CCOCCOCCOCCOCCOCCOCCOCCOCCNC(=O)CCCCCCCCCCCCCCC)[C@@H](C)O)C(=O)N[C@@H](CC(C)C)C(=O)N[C@@H](CCCNC(=N)NC)C(=O)N[C@@H](Cc1c[nH]c2ccccc12)C(N)=O [YA-360, Palm-PEG8-Gly-Gly-(D-Tyr)-Hyp-Asn-Thr-Phe-A1g-Leu-Arg(Me)-Trp-NH2] ({Palmitoyl-PEG8}-[dY][Hyp]NTF[AllylGly]L[Arg(Me)]W-NH2)	0.006 nM	79.9 h
CCCCCCCCCCCCCCCC(=O)NCCOCCOCCOCCOCCOCCOCCOCCOCCC(=O)NCC(=O)NCC(=O)N[C@H](Cc1ccc(O)cc1)C(=O)N1C[C@H](O)C[C@H]1C(=O)N[C@@H](CC(N)=O)C(=O)N[C@H](C(=O)N[C@@H](Cc1ccccc1)C(=O)N[C@H](Cc1ccco1)C(=O)N[C@@H](CC(C)C)C(=O)N[C@@H](CCCNC(=N)NC)C(=O)N[C@@H](Cc1c[nH]c2ccccc12)C(N)=O)[C@@H](C)O [YA-288, Palm-PEG 8-Gly-Gly-D-Tyr-Hyp-Asn-Thr-Phe-(D-2Fua)-Leu-Arg(Me)-Trp-NH2] ({Palmitoyl-PEG8}-GG[dY][Hyp]NTF[dAla(2-furyl)]L[Arg(Me)]W-NH2)	0.018 nM	27.5 h
CCCCCCCCCCCC(=O)NCCOCCOCCOCCOCCC(=O)NCCOCCOCCOCCOCCC(=O)N[C@H](Cc1ccc(O)cc1)C(=O)N1C[C@H](O)C[C@H]1C(=O)N[C@@H](CC(N)=O)C(=O)N[C@H](C(=O)N[C@@H](Cc1ccccc1)C(=O)NNC(=O)N[C@@H](CC(C)C)C(=O)N[C@@H](CCCNC(=N)NC)C(=O)N[C@@H](Cc1c[nH]c2ccccc12)C(N)=O)[C@@H](C)O [YA-296, Dodecanoyl-PEG4-PEG4-D-Tyr-Hyp-Asn-Thr-Phe-azaGly-Leu-Arg(Me)-Trp-NH2] ({Lauroyl-PEG4-PEG4}-[dY][Hyp]NTF[azaGly]L[Arg(Me)]W-NH2)	0.011 nM	2.73 h
CCCCCCCCCCCCCCCC(=O)NCCOCCOCCOCCOCCOCCOCCOCCOCCC(=O)NCCCC[C@H](NC(C)=O)C(=O)NCC(=O)NCC(=O)N[C@H](Cc1ccc(O)cc1)C(=O)N1C[C@H](O)C[C@H]1C(=O)N[C@@H](CC(N)=O)C(=O)N[C@H](C(=O)N[C@@H](Cc1ccccc1)C(=O)NNC(=O)N[C@@H](CC(C)C)C(=O)N[C@@H](CCCNC(=N)NC)C(=O)N[C@@H](Cc1c[nH]c2ccccc12)C(N)=O)[C@@H](C)O [YA-157, Ac-Lys(Palm-PEG8)-Gly-Gly-(D-Tyr)-Hyp-Asn-Thr-Phe-azaGly-Leu-Arg(Me)-Trp-NH2] (Ac-K([PEG8-Palmitoyl])GG[dY][Hyp]NTF[azaGly]L[Arg(Me)]W-NH2)	0.03 nM	6.67 h
CCCCCCCCCCCCCCCC(=O)NCCOCCOCCOCCOCCOCCOCCOCCOCCC(=O)NCC(=O)NCC(=O)N[C@H](Cc1ccc(O)cc1)C(=O)N1C[C@H](O)C[C@H]1C(=O)N[C@@H](CC(N)=O)C(=O)N[C@H](C(=O)N[C@@H](Cc1ccccc1)C(=O)NNC(=O)N[C@@H](CC(C)C)C(=O)N[C@@H](CCCNC(=N)NC)C(=O)N[C@@H](Cc1c[nH]c2ccccc12)C(N)=O)[C@@H](C)O [YA-156, Palm-PEG8-Gly-Gly-(D-Tyr)-Hyp-Asn-Thr-Phe-azaGly-Leu-Arg(Me)-Trp-NH2] ({Palmitoyl-PEG8}-GG[dY][Hyp]NTF[azaGly]L[Arg(Me)]W-NH2)	0.045 nM	44.4 h
